These results are taken from patent publication US9273057B2 (Bristol-Myers Squibb Company, priority 2012, dated 2016).

This assay deals with CK2A1 (CK2α/β) (Homo sapiens, UniProt P68400). Put plainly: CK2 kinase assay, CK2A1 (CK2α/β). Type of assay: biochemical. To be noted: Table A; read-out: CK2A1 (CK2α/β) (IC50).
Sequence of CK2A1 (CK2α/β) (P68400 whole entry, species assumed): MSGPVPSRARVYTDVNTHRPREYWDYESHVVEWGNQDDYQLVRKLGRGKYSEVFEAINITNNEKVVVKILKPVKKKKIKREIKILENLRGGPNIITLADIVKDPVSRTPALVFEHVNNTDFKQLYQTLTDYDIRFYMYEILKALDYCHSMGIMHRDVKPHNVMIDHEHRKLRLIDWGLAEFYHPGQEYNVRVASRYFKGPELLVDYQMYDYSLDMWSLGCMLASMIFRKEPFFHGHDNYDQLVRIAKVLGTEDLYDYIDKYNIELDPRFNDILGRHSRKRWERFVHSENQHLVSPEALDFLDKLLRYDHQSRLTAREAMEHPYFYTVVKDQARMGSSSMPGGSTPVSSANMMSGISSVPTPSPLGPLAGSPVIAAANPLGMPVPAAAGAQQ
Sequence of CK2A1 (CK2α/β) (P67870 whole entry partner, species assumed): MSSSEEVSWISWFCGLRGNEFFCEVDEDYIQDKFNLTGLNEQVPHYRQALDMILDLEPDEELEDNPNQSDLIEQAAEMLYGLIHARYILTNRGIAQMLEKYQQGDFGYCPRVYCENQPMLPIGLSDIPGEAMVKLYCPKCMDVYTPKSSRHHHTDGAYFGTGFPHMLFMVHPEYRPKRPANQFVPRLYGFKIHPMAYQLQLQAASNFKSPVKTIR
For the molecule `CCNC(=O)OCC1CN(c2cc(C#N)cc(Nc3nc(NC4CC4)c4ncc(C#N)n4n3)c2Cl)CCO1` (racemic) [Example 699, (+/−)-(4-(2-chloro-5-cyano-3-((7-cyano-4-(cyclopropylamino)imidazo[2,1-f][1,2,4]triazin-2-yl)amino)phenyl)morpholin-2-yl)methyl ethylcarbamate], the IC50 was found to be 0.97 nM.
With `CS(=O)(=O)NCC1CN(c2cc(C#N)cc(Nc3nc(NC4CC4)c4ncc(C#N)n4n3)c2Cl)CCO1` (racemic) [Example 700, (+/−)-N-((4-(2-chloro-5-cyano-3-((7-cyano-4-(cyclopropylamino)imidazo[2,1-f][1,2,4]triazin-2-yl)amino)phenyl)morpholin-2-yl)methyl)methanesulfonamide] the figure was 0.57 nM; with `N#Cc1cc(Nc2nc(NC3CC3)c3ncc(C#N)n3n2)c(Cl)c(C2CCCC(N3CCOCC3)C2)c1` (racemic) [Example 725, (+/−) cis and trans-2-((2-chloro-5-cyano-3-(3-morpholinocyclohexyl)phenyl)amino)-4-(cyclopropylamino)imidazo[2,1-f][1,2,4]triazine-7-carbonitrile], 1.39 nM.
Turning to `N#Cc1cc(CCC2CNCCO2)c(Cl)c(Nc2nc(NC3CC3)c3ncc(C#N)n3n2)c1` (racemic) [Example 739, (+/−)-2-((2-chloro-5-cyano-3-(2-(morpholin-2-yl)ethyl)phenyl)amino)-4-(cyclopropylamino) imidazo[2,1-f][1,2,4]triazine-7-carbonitrile], the IC50 came to 0.45 nM.
With `CCNc1nc(Nc2cc(C#N)cc(N3CC[C@@H](N4CC(O)C4)[C@H](O)C3)c2Cl)nn2c(C#N)cnc12` (racemic) [Example 776, (+/−)-2-((2-chloro-5-cyano-3-((3R,4R)-3-hydroxy-4-(3-hydroxyazetidin-1-yl)piperidin-1-yl)phenyl)amino)-4-(ethylamino)imidazo[2,1-f][1,2,4]triazine-7-carbonitrile] the figure was 1.2 nM.
Take `N#Cc1cc(Nc2nc(NC3CC3)c3ncc(C#N)n3n2)c(Cl)c(N2C[C@@H]3CCCN[C@@H]3C2)c1` (racemic) [Example 777, (+/−)-2-((2-chloro-5-cyano-3-((4aS,7aS)-hexahydro-1H-pyrrolo[3,4-b]pyridin-6(2H)-yl)phenyl)amino)-4-(cyclopropylamino)imidazo[2,1-f][1,2,4]triazine-7-carbonitrile]: the IC50 is 0.64 nM.
With `CN1CCC2(CCN(c3cc(C#N)cc(Nc4nc(NC5CC5)c5ncc(C#N)n5n4)c3Cl)CC2)C1=O` (racemic) [Example 779, (+/−)-2-((2-chloro-5-cyano-3-(2-methyl-1-oxo-2,8-diazaspiro[4.5]decan-8-yl)phenyl)amino)-4-(cyclopropylamino)imidazo[2,1-f][1,2,4]triazine-7-carbonitrile] the figure was 0.63 nM; with `CCNc1nc(Nc2cc(C#N)cc(N3CCC4(CC3)CN(C)C(=O)O4)c2Cl)nn2c(C#N)cnc12` (racemic) [Example 781, (+/−)-2-((2-chloro-5-cyano-3-(3-methyl-2-oxo-1-oxa-3,8-diazaspiro[4.5]decan-8-yl)phenyl)amino)-4-(ethylamino)imidazo[2,1-f][1,2,4]triazine-7-carbonitrile], 0.71 nM.
In the case of `CN1CC2(CCN(c3cc(C#N)cc(Nc4nc(NC5CC5)c5ncc(C#N)n5n4)c3Cl)CC2)CC1=O` (racemic) [Example 782, (+/−)-2-((2-chloro-5-cyano-3-(2-methyl-3-oxo-2,8-diazaspiro[4.5]decan-8-yl)phenyl)amino)-4-(cyclopropylamino)imidazo[2,1-f][1,2,4]triazine-7-carbonitrile], the IC50 was determined as 0.58 nM.
For `CCNc1nc(Nc2cc(C#N)cc(N3CCC4(CC3)CC(=O)N(C)C4)c2Cl)nn2c(C#N)cnc12` (racemic) [Example 783, (+/−)-2-((2-chloro-5-cyano-3-(2-methyl-3-oxo-2,8-diazaspiro[4.5]decan-8-yl)phenyl)amino)-4-(ethylamino)imidazo[2,1-f][1,2,4]triazine-7-carbonitrile], the IC50 was 3.76 nM.
With `CCNc1nc(Nc2cc(C#N)cc(N3CCC4(CCN(C)C4=O)CC3)c2Cl)nn2c(C#N)cnc12` (racemic) [Example 784, (+/−)-2-((2-chloro-5-cyano-3-(2-methyl-1-oxo-2,8-diazaspiro[4.5]decan-8-yl)phenyl)amino)-4-(ethylamino)imidazo[2,1-f][1,2,4]triazine-7-carbonitrile] the figure was 1.88 nM; with `CN1C(=O)CNC12CCN(c1cc(C#N)cc(Nc3nc(NC4CC4)c4ncc(C#N)n4n3)c1Cl)CC2` (racemic) [Example 785, (+/−)-2-((2-chloro-5-cyano-3-(1-methyl-2-oxo-1,4,8-triazaspiro[4.5]decan-8-yl)phenyl)amino)-4-(cyclopropylamino)imidazo[2,1-f][1,2,4]triazine-7-carbonitrile], 6.67 nM; with `N#Cc1cc(Nc2nc(NC3CC3)c3ncc(C#N)n3n2)c(Cl)c(N2CCN3C(CCS3(=O)=O)C2)c1` (racemic) [Example 788, (+/−)-2-((2-chloro-5-cyano-3-(1,1-dioxidotetrahydro-2H-isothiazolo[2,3-a]pyrazin-5 (3H)-yl)phenyl)amino)-4-(cyclopropylamino)imidazo[2,1-f][1,2,4]triazine-7-carbonitrile], 0.62 nM.
With `N#Cc1cc(Nc2nc(NC3CC3)c3ncc(C#N)n3n2)c(Cl)c(N2CCC3(CC2)CN(CC(O)CF)C3)c1` (racemic) [Example 796, (+/−)-2-((2-chloro-5-cyano-3-(2-(3-fluoro-2-hydroxypropyl)-2,7-diazaspiro[3.5]nonan-7-yl)phenyl)amino)-4-(cyclopropylamino)imidazo[2,1-f][1,2,4]triazine-7-carbonitrile] the figure was 1.69 nM; with `CC(O)CN1CC2(CCN(c3cc(C#N)cc(Nc4nc(NC5CC5)c5ncc(C#N)n5n4)c3Cl)CC2)C1` (racemic) [Example 797, (+/−)-2-((2-chloro-5-cyano-3-(2-(2-hydroxypropyl)-2,7-diazaspiro[3.5]nonan-7-yl)phenyl)amino)-4-(cyclopropylamino)imidazo[2,1-f][1,2,4]triazine-7-carbonitrile], 6.61 nM; with `CC(C(N)=O)N1CC2(CCN(c3cc(C#N)cc(Nc4nc(NC5CC5)c5ncc(C#N)n5n4)c3Cl)CC2)C1` (racemic) [Example 802, (+/−)-2-(7-(2-chloro-5-cyano-3-((7-cyano-4-(cyclopropylamino)imidazo[2,1-f][1,2,4]triazin-2-yl)amino)phenyl)-2,7-diazaspiro[3.5]nonan-2-yl)propanamide], 6.9 nM.
The same measure for `N#Cc1cc(Nc2nc(NC3CC3)c3ncc(C#N)n3n2)c(Cl)c(N2CC3(CCN(CC(O)CF)CC3)C2)c1` (racemic) [Example 807, (+/−)-2-((2-chloro-5-cyano-3-(7-(3-fluoro-2-hydroxypropyl)-2,7-diazaspiro[3.5]nonan-2-yl)phenyl)amino)-4-(cyclopropylamino)imidazo[2,1-f][1,2,4]triazine-7-carbonitrile]: 0.73 nM; for `CCNc1nc(Nc2ccc3c(c2)c(C#N)cn3C2CCN(CC(O)CF)CC2)nn2c(C#N)cnc12` (racemic) [Example 824, (+/−)-2-((3-cyano-1-(1-(3-fluoro-2-hydroxypropyl)piperidin-4-yl)-1H-indol-5-yl)amino)-4-(ethylamino)imidazo[2,1-f][1,2,4]triazine-7-carbonitrile]: 0.8 nM.
`CCNc1nc(Nc2ccc3c(c2)c(C#N)cn3C2CCN(C3COCC3O)CC2)nn2c(C#N)cnc12` (racemic) [Example 825, (+/−)-2-((3-cyano-1-(1-(4-hydroxytetrahydrofuran-3-yl)piperidin-4-yl)-1H-indol-5-yl)amino)-4-(ethylamino)imidazo[2,1-f][1,2,4]triazine-7-carbonitrile]: the IC50 came to 0.3 nM.
With `CCNc1nc(Nc2cc(C#N)cc(N3CC[C@@H]4[C@@H](C3)OC(=O)N4C3COC3)c2Cl)nn2c(C#N)cnc12` (racemic) [Example 838, (+/−)-2-((2-chloro-5-cyano-3-((3aR,7aR)-1-(oxetan-3-yl)-2-oxohexahydrooxazolo[5,4-c]pyridin-5(2H)-yl)phenyl)amino)-4-(ethylamino)imidazo[2,1-f][1,2,4]triazine-7-carbonitrile] the figure was 0.54 nM.
On to `CN(C)C(=O)C1CN(c2cc(C#N)cc(Nc3nc(NC4CC4)c4ncc(C#N)n4n3)c2Cl)CCN1CC(O)CF` (single isomer, unassigned) [Example 315, (+/−) 4-(2-chloro-5-cyano-3-((7-cyano-4-(cyclopropylamino)imidazo [2,1-f][1,2,4]triazin-2-yl)amino)phenyl)-1-(3-fluoro-2-hydroxypropyl)-N,N-dimethyl-2-piperazinecarboxamide], for which the IC50 came out at 0.37 nM.
`CN(C)C(=O)C1CN(c2cc(C#N)cc(Nc3nc(NC4CC4)c4ncc(C#N)n4n3)c2Cl)CCN1CC(O)CF` (single isomer, unassigned) [Example 316, (+/−) 4-(2-chloro-5-cyano-3-((7-cyano-4-(cyclopropylamino)imidazo [2,1-f][1,2,4]triazin-2-yl)amino)phenyl)-1-(3-fluoro-2-hydroxypropyl)-N,N-dimethyl-2-piperazinecarboxamide]: the IC50 was determined as 1.87 nM.
The same measure for `N#Cc1cc(Nc2nc(NC3CC3)c3ncc(C#N)n3n2)c(Cl)c(C2CCN(C3CCC3O)CC2)c1` (single isomer, unassigned) [Example 645, Cis and trans 2-((2-chloro-5-cyano-3-(1-(2-hydroxycyclobutyl)piperidin-4-yl)phenyl)amino)-4-(cyclopropylamino)imidazo[2,1-f][1,2,4]triazine-7-carbonitrile]: 1.75 nM; for `N#Cc1cc(Nc2nc(NC3CC3)c3ncc(C#N)n3n2)c(Cl)c(C2CCN(C3CCC3O)CC2)c1` (single isomer, unassigned) [Example 646, Cis and trans 2-((2-chloro-5-cyano-3-(1-(2-hydroxycyclobutyl)piperidin-4-yl)phenyl)amino)-4-(cyclopropylamino)imidazo[2,1-f][1,2,4]triazine-7-carbonitrile]: 1.48 nM; for `N#Cc1cc(Nc2nc(NC3CC3)c3ncc(C#N)n3n2)c(Cl)c([C@H]2CCC[C@@H](N3CC(F)C3)C2)c1` (single isomer, unassigned) [Example 729]: 1.68 nM.
